In patent US7235559B1, “Therapeutic quinazoline derivatives” (AstraZeneca AB, priority 1999, dated 2007):

Tests used:
aurora2 kinase = target: T1, aurora2 kinase (Homo sapiens, UniProt O14965); assay: In Vitro aurora2 kinase inhibition test; format: biochemical
T1 construct: made in house; host or cells: Spodoptera frugiperda Sf21 insect cells (baculovirus)
T1 sequence (O14965 1-403): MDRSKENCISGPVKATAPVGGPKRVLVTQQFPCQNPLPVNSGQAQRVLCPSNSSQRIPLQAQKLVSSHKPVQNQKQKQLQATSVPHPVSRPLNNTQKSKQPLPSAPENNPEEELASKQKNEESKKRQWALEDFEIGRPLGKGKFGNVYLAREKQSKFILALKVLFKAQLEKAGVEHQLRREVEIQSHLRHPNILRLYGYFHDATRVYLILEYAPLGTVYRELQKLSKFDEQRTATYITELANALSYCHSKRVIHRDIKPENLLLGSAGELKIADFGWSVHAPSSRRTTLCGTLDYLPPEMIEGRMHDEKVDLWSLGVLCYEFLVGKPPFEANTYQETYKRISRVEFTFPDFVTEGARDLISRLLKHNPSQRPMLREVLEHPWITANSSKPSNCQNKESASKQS

MCF-7 cells [1] = assay: In Vitro cell proliferation assay, Assay 1 (CyQUANT cell density); format: cell-based; conditions: Homo sapiens, MCF7, 72 h, MCF-7, 3 days in presence of compound, read-out: concentration giving 50% inhibition of cell proliferation
Text: (§1) These and other assays can be used to determine the ability of a test compound to inhibit the growth of adherent mammalian cell lines, for example the human tumour cell line MCF7.
MCF-7 (ATCC HTB-22) or other adherent cells were typically seeded at 1×10^3 cells per well (excluding the peripheral wells) in DMEM (Sigma Aldrich) without phenol red, plus 10% foetal calf serum, 1% L-glutamine and 1% penicillin/streptomycin in 96 well tissue culture treated clear plates (Costar). The following day (day 1), the media was removed from a no treatment control plate and the plate stored at −80° C. The remaining plates were dosed with compound (diluted from 10 mM stock in DMSO using DMEM (without phenol red, 10% FCS, 1% L-glutamine, 1% penicillin/streptomycin). Untreated control wells were included on each plate. After 3 days in the presence/absence of compound (day 4) the media was removed and the plates stored at −80° C. Twenty four hours later the plates were thawed at room temperature and cell density determined using the CyQUANT cell proliferation assay kit (c-7026/c-7027 Molecular Probes Inc.) according to manufacturers directions. Briefly, 200 μl of cell lysis/dye mixture (10 μl of 20× cell lysis buffer B, 190 μl of sterile water, 0.25 μl of CYQUANT GR dye) was added to each well and the plates incubated at room temperature for 5 minutes in the dark. […]

MCF-7 cells [2] = assay: In Vitro cell proliferation assay, Assay 2 (BrdU incorporation); format: cell-based; conditions: Homo sapiens, MCF7; MCF-7, 48 hours with compound, 2 hour BrdU labelling; read-out: concentration giving 50% inhibition of BrdU incorporation
Text: as §1
This assay determines the ability of at test compound to inhibit the incorporation of the thymidine analogue, 5′-bromo-2′-deoxy-uridine (BrdU) into cellular DNA. MCF-7 or other adherent cells were typically seeded at 0.8×10^4 cells per well in DMEM (Sigma Aldrich) without phenol red, plus 10% foetal calf serum, 1% L-glutamine and 1% penicillin/streptomycin (50 μl/well) in 96 well tissue culture treated 96 well plates (Costar) and allowed to adhere overnight. […] The optical density of the wells was then determined at 690 nm wavelength using a Titertek Multiscan plate reader. […]

MCF7 cells = assay: In Vitro cell cycle analysis assay (FACS); format: cell-based, human; conditions: 10 μM, 24 hours
Experimental: This assay determines the ability of a test compound to arrest cells in specific phases of the cell cycle. Many different mammalian cell lines could be used in this assay and MCF7 cells are included here as an example. MCF-7 cells were seeded at 3×10^5 cells per T25 flask (Costar) in 5 ml DMEM (no phenol red 10% FCS, 1% L-glutamine 1% penicillin/streptomycin). Flasks were then incubated overnight in a humidified 37° C. incubator with 5% CO2. The following day 1 ml of DMEM (no phenol red 10% FCS, 1% L-glutamine 1% penicillin/streptomycin) carrying the appropriate concentration of test compound solubilised in DMSO was added to the flask. A no compound control treatments was also included (0.5% DMSO). The cells were then incubated for a defined time (usually 24 hours) with compound. After this time the media was aspirated from the cells and they were washed with 5 ml of prewarmed (37° C.) sterile PBSA, then detached from the flask by brief incubation with trypsin and followed by resuspension in 10 ml of 1% Bovine Serum Albumin (BSA, Sigma-Aldrich Co.) in sterile PBSA. The samples were then centrifuged at 2200 rpm for 10 min. The supernatant was aspirated and the cell pellet was resuspended in 200 μl of 0.1% (w/v) Tris sodium citrate, 0.0564% (w/v) NaCl, 0.03% (v/v) Nonidet NP40, [pH 7.6]. Propridium Iodide (Sigma Aldrich Co.) was added to 40 μg/ml and RNAase A (Sigma Aldrich Co.) to 100 μg/ml. The cells were then incubated at 37° C. for 30 minutes. The samples were centrifuged at 2200 rpm for 10 min, the supernatant removed and the remaining pellet (nuclei) resuspended in 200 μl of sterile PBSA. […] The samples were then transferred to LPS tubes and DNA content per cell analysed by Fluorescence activated cell sorting (FACS) using a FACScan flow cytometer (Becton Dickinson). Typically 25000 events were counted and recorded using CellQuest v1.1 software (Verity Software). Cell cycle distribution of the population was calculated using Modfit software (Verity Software) and expressed as percentage of cells in G0/G1, S and G2/M phases of the cell cycle. […]

Structure (SMILES): COc1cc2ncnc(Nc3cnc(NC(=O)c4ccccc4)nc3)c2cc1OC [Compound 6]
- IC50 (aurora2 kinase): 7.85 nM
- IC50 (MCF-7 cells [1]): 1700 nM
- IC50 (MCF-7 cells [2]): 1920 to 2850 nM
- % Cells in G1 (MCF7 cells): 43.22%
- % Cells in G2/M (MCF7 cells): 30.38%
- % Cells in S (MCF7 cells): 18%
